Numbers after ± are expanded uncertainties.
Experiments:
[1] = xn = mol fraction of the nth substance listed; settings: 100 kPa, Liquid, Vibrating tube method
[2] = refractive index (Na D-line) (dimensionless); xn = mol fraction of the nth substance listed; settings: 100 kPa, Liquid, Standard Abbe refractometry

CCCCCCn1cc[n+](C)c1.F[B-](F)(F)F [1-hexyl-3-methylimidazolium tetrafluoroborate] + O
Settings | mass density, [1] [kg/m3] | refractive index, [2]
293.15 K, x1 = 0.3006 | 1117.21 ± 2 | 1.415 ± 0.0019
293.15 K, x1 = 0.4005 | 1125.26 ± 2 | 1.418 ± 0.0016
293.15 K, x1 = 0.4999 | 1132.22 ± 2 | 1.4195 ± 0.0017
293.15 K, x1 = 0.6008 | 1136.97 ± 2 | 1.422 ± 0.0016
293.15 K, x1 = 0.7004 | 1140.58 ± 2 | 1.4245 ± 0.0016
293.15 K, x1 = 0.7996 | 1143.29 ± 2 | 1.425 ± 0.0016
293.15 K, x1 = 0.8997 | 1145.34 ± 2 | 1.427 ± 0.0016
303.15 K, x1 = 0.3006 | 1109.91 ± 2 | 1.414 ± 0.0017
303.15 K, x1 = 0.4005 | 1117.8 ± 2 | 1.415 ± 0.0017
303.15 K, x1 = 0.4999 | 1125.06 ± 2 | 1.417 ± 0.0016
303.15 K, x1 = 0.6008 | 1129.88 ± 2 | 1.42 ± 0.0016
303.15 K, x1 = 0.7004 | 1133.55 ± 2 | 1.422 ± 0.0016
303.15 K, x1 = 0.7996 | 1136.29 ± 2 | 1.4235 ± 0.0016
303.15 K, x1 = 0.8997 | 1138.36 ± 2 | 1.425 ± 0.0016
313.15 K, x1 = 0.3006 | 1102.56 ± 2 | 1.409 ± 0.0017
313.15 K, x1 = 0.4005 | 1110.53 ± 2 | 1.412 ± 0.0016
313.15 K, x1 = 0.4999 | 1117.91 ± 2 | 1.4165 ± 0.0016
313.15 K, x1 = 0.6008 | 1122.81 ± 2 | 1.419 ± 0.0016
313.15 K, x1 = 0.7004 | 1126.54 ± 2 | 1.421 ± 0.0016
313.15 K, x1 = 0.7996 | 1129.34 ± 2 | 1.4215 ± 0.0016
313.15 K, x1 = 0.8997 | 1131.42 ± 2 | 1.423 ± 0.0016
323.15 K, x1 = 0.3006 | 1095.15 ± 2 | 1.408 ± 0.0016
323.15 K, x1 = 0.4005 | 1103.23 ± 2 | 1.4115 ± 0.0016
323.15 K, x1 = 0.4999 | 1110.76 ± 2 | 1.415 ± 0.0016
323.15 K, x1 = 0.6008 | 1115.77 ± 2 | 1.417 ± 0.0016
323.15 K, x1 = 0.7004 | 1119.58 ± 2 | 1.419 ± 0.0016
323.15 K, x1 = 0.7996 | 1122.43 ± 2 | 1.42 ± 0.0016
323.15 K, x1 = 0.8997 | 1124.55 ± 2 | 1.421 ± 0.0016
333.15 K, x1 = 0.3006 | 1087.71 ± 2 | 1.4075 ± 0.0016
333.15 K, x1 = 0.4005 | 1095.9 ± 2 | 1.4115 ± 0.0016
333.15 K, x1 = 0.4999 | 1103.62 ± 2 | 1.415 ± 0.0016
333.15 K, x1 = 0.6008 | 1108.78 ± 2 | 1.4155 ± 0.0016
333.15 K, x1 = 0.7004 | 1112.66 ± 2 | 1.417 ± 0.0016
333.15 K, x1 = 0.7996 | 1115.58 ± 2 | 1.418 ± 0.0016
333.15 K, x1 = 0.8997 | 1117.73 ± 2 | 1.419 ± 0.0017
343.15 K, x1 = 0.3006 | 1080.23 ± 2 | 1.4075 ± 0.002
343.15 K, x1 = 0.4005 | 1088.51 ± 2 | 1.4095 ± 0.0016
343.15 K, x1 = 0.4999 | 1096.51 ± 2 | 1.4125 ± 0.0017
343.15 K, x1 = 0.6008 | 1101.81 ± 2 | 1.414 ± 0.0016
343.15 K, x1 = 0.7004 | 1105.77 ± 2 | 1.4145 ± 0.0016
343.15 K, x1 = 0.7996 | 1108.76 ± 2 | 1.416 ± 0.0017
343.15 K, x1 = 0.8997 | 1110.94 ± 2 | 1.4165 ± 0.0017

CCCCCCCC[n+]1ccn(C)c1.F[B-](F)(F)F [1-methyl-3-octylimidazolium tetrafluoroborate] + O
Settings | mass density, [1] [kg/m3] | refractive index, [2]
293.15 K, x1 = 0.3005 | 1084.34 ± 2 | 1.4165 ± 0.0018
293.15 K, x1 = 0.4006 | 1089.21 ± 2 | 1.4205 ± 0.0016
293.15 K, x1 = 0.5002 | 1094.12 ± 2 | 1.424 ± 0.0016
293.15 K, x1 = 0.6001 | 1098.16 ± 2 | 1.4265 ± 0.0016
293.15 K, x1 = 0.7006 | 1100.51 ± 2 | 1.4285 ± 0.0016
293.15 K, x1 = 0.8004 | 1103.28 ± 2 | 1.4305 ± 0.0016
293.15 K, x1 = 0.9015 | 1104.81 ± 2 | 1.4315 ± 0.0016
303.15 K, x1 = 0.3005 | 1076.96 ± 2 | 1.414 ± 0.0016
303.15 K, x1 = 0.4006 | 1082.09 ± 2 | 1.419 ± 0.0016
303.15 K, x1 = 0.5002 | 1087.07 ± 2 | 1.422 ± 0.0016
303.15 K, x1 = 0.6001 | 1091.18 ± 2 | 1.425 ± 0.0016
303.15 K, x1 = 0.7006 | 1093.59 ± 2 | 1.4265 ± 0.0016
303.15 K, x1 = 0.8004 | 1096.42 ± 2 | 1.428 ± 0.0016
303.15 K, x1 = 0.9015 | 1098.01 ± 2 | 1.4295 ± 0.0017
313.15 K, x1 = 0.3005 | 1069.66 ± 2 | 1.413 ± 0.0016
313.15 K, x1 = 0.4006 | 1074.86 ± 2 | 1.4165 ± 0.0016
313.15 K, x1 = 0.5002 | 1080 ± 2 | 1.4205 ± 0.0016
313.15 K, x1 = 0.6001 | 1084.21 ± 2 | 1.423 ± 0.0016
313.15 K, x1 = 0.7006 | 1086.68 ± 2 | 1.4245 ± 0.0016
313.15 K, x1 = 0.8004 | 1089.58 ± 2 | 1.4265 ± 0.0016
313.15 K, x1 = 0.9015 | 1091.22 ± 2 | 1.427 ± 0.0016
323.15 K, x1 = 0.3005 | 1061.92 ± 2 | 1.4125 ± 0.0016
323.15 K, x1 = 0.4006 | 1067.52 ± 2 | 1.416 ± 0.0016
323.15 K, x1 = 0.5002 | 1072.9 ± 2 | 1.419 ± 0.0016
323.15 K, x1 = 0.6001 | 1077.21 ± 2 | 1.422 ± 0.0016
323.15 K, x1 = 0.7006 | 1079.77 ± 2 | 1.423 ± 0.0016
323.15 K, x1 = 0.8004 | 1082.8 ± 2 | 1.424 ± 0.0016
323.15 K, x1 = 0.9015 | 1084.48 ± 2 | 1.4255 ± 0.0016
333.15 K, x1 = 0.3005 | – | 1.412 ± 0.0016
333.15 K, x1 = 0.4006 | – | 1.415 ± 0.0016
333.15 K, x1 = 0.5002 | – | 1.4185 ± 0.0016
333.15 K, x1 = 0.6001 | – | 1.4195 ± 0.0016
333.15 K, x1 = 0.7006 | – | 1.421 ± 0.0016
333.15 K, x1 = 0.8004 | – | 1.4225 ± 0.0016
333.15 K, x1 = 0.9015 | – | 1.4235 ± 0.0016
343.15 K, x1 = 0.3005 | 1041.36 ± 2 | 1.412 ± 0.002
343.15 K, x1 = 0.4006 | 1049.84 ± 2 | 1.414 ± 0.0016
343.15 K, x1 = 0.5002 | 1057.37 ± 2 | 1.417 ± 0.0016
343.15 K, x1 = 0.6001 | 1062.23 ± 2 | 1.419 ± 0.0016
343.15 K, x1 = 0.7006 | 1065.07 ± 2 | 1.419 ± 0.0016
343.15 K, x1 = 0.8004 | 1069.34 ± 2 | 1.4205 ± 0.0016
343.15 K, x1 = 0.9015 | 1070.96 ± 2 | 1.4215 ± 0.0016

— the NIST ThermoML archive (doi:10.1021/acs.jced.8b00854)
